Columns and labels:
tau protein = molecular target: T1, tau protein (Homo sapiens, UniProt P10636); assay: Tau-BiFC cell model: inhibition of tau protein aggregation; assay type: cell-based; conditions: for remaining activity at 10 µM / remaining activity at 3 µM: 48 h; for remaining activity at 10 µM: read-out: Response (% @10 μM); for IC50: Tau BiFC in cells, with Forskolin 30 μM, 48 hours; for remaining activity at 3 µM: compounds marked *: measured at 3 μM, read-out: Response
T1 construct: fused on or other part: Split fluorescent-protein halves for BiFC are fused to tau; In the published tau-BiFC line these are Venus VN173 and VC155
In short: (§1)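 Aggregation was induced by 30 μM Forskolin co-applied with test compound for 48 h, with screening at 1, 3, 10 μM and dose-response at 0.03–30 μM. Nuclei were stained with Hoechst (2 μg/mL) and counted against Forskolin-only wells for cytotoxicity. Inhibition came from BiFC fluorescence relative to Forskolin-only versus untreated cells, with IC50 by nonlinear regression.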

Tau-BiFC cells = assay: Cell viability (cytotoxicity) in tau-BiFC cells, count of stained nuclei; assay type: cell-based; conditions: Forskolin-only group = 100% cell viability; for Cell viability (% @10 μM): compound 10 μM; for Cell viability: compounds marked *: measured at 3 μM
In short: as §1

[1] = Liver microsome stability; assay type: in vitro ADME, human; conditions: amount of substrate remaining; compound 1 μM, 30 minutes, 37° C., NADPH
Description: (§2) The stability of liver microsomes due to the compounds prepared according to Examples 1 to 175 was confirmed. Specifically, four types of liver microsomes (human, dog, rat, and mouse, each 0.25 mg/mL), a 0.1 M phosphate buffer solution (pH 7.4), and each of the compounds at a concentration of 1 μM were mixed and pre-cultured at 37° C. for 5 minutes and further cultured at 37° C. for 30 minutes together with an NADPH generation system solution added thereto. Thereafter, the reaction was terminated by adding an acetonitrile solution containing an internal standard material (chloropropamide) and centrifuged for 5 minutes (14,000 rpm, 4° C.), and then a supernatant was injected into an LC-MS/MS system for analysis of substrate drugs to thereby evaluate metabolic stability due to 8 types of compounds.
(§3) The amount of the substrate remaining after the reaction was analyzed using the Shimadzu Nexera XR system and TSQ Vantage (Thermo). In an HPLC column, Kinetex XB-C18 (2.1 mm×100 mm, particle size of 2.6 μm; Phenomenex, USA) was used, and mobile phases were (A) distilled water containing 0.1% formic acid and (B) acetonitrile containing 0.1% formic acid. Analyst software (version 1.6.3) and Xcalibur (version 1.6.1) were used for data analysis.

[2] = Liver microsome stability; assay type: in vitro ADME, rat; conditions: amount of substrate remaining; compound 1 μM, 30 minutes, 37° C., NADPH
Description: as §2, §3

[3] = Liver microsome stability; assay type: in vitro ADME, mouse; conditions: amount of substrate remaining; compound 1 μM, 30 minutes, 37° C., NADPH
Description: as §2, §3

[4] = compound 10 μM, BiFC fluorescence, Forskolin-only group = 100% tau protein-aggregated state
[5] = Forskolin-only group = 100% tau protein-aggregated state

T1 sequence (P10636 2-441 isoform P10636-8 limits assumed): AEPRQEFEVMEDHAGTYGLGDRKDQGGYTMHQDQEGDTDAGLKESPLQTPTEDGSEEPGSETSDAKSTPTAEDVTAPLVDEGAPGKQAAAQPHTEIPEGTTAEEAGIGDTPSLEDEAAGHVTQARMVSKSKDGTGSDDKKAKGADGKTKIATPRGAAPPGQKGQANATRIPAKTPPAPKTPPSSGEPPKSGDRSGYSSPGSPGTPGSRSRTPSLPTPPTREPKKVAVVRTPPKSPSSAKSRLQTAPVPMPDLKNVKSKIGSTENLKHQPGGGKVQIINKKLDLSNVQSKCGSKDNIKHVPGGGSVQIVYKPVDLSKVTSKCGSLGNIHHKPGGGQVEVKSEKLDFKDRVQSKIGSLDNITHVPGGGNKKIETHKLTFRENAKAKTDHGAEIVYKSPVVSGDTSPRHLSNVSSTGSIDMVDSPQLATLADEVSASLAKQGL

Compound	remaining activity at 10 µM (tau protein; [4]) [%]	IC50 (tau protein) [nM]	Cell viability (% @10 μM) (Tau-BiFC cells) [%]	also measured
N#CC(C#N)=NNc1ccc(NC(=O)c2nc3ccccc3s2)nc1 [Compound 31, (6-(benzo[d]thiazole-2-carboxamido)pyridin-3-yl)carbonohydrazonoyl dicyanide]	0	540	114.3	Human (%) [1]: 28.7%
N#CC(C#N)=NNc1ccc(OCc2ccccc2)cc1 [Compound 117, (4-(benzyloxy)phenyl)carbonohydrazonoyl Dicyanide]	16.6	1240	126.0	–
N#CC(C#N)=NNc1ccc(OCc2ccc(C(F)(F)F)cc2)cc1 [Compound 118, (4-(4-(trifluoromethyl)benzyloxy)phenyl)carbonohydrazonoyl dicyanide]	25.7	5750	82.6	–
Cc1ccc(COc2ccc(NN=C(C#N)C#N)cc2)cc1 [Compound 119, (4-(4-methylbenzyloxy)phenyl)carbonohydrazonoyl dicyanide]	38.9	3550	112.5	–
COc1ccc(CCOc2ccc(NN=C(C#N)C#N)cc2)cc1 [Compound 120, (4-(4-methoxyphenethoxy)phenyl)carbonohydrazonoyl dicyanide]	0	1450	66.2	–
N#CC(C#N)=NNc1ccc(OCCc2ccc(C(F)(F)F)cc2)cc1 [Compound 121, (4-(4-(trifluoromethyl)phenethoxy)phenyl)carbonohydrazonoyl dicyanide]	3.4	4610	72.7	–
N#CC(C#N)=NNc1ccc(OCCc2ccccc2)cc1 [Compound 122, (4-phenethoxyphenyl)carbonohydrazonoyl Dicyanide]	11.7	1860	92.9	–
N#CC(C#N)=NNc1ccc(OCCc2ccc(Cl)cc2)cc1 [Compound 123, (4-(4-chlorophenethoxy)phenyl)carbonohydrazonoyl dicyanide]	0	780	34.6	–
N#CC(C#N)=NNc1ccc(OCc2cnccn2)cc1 [Compound 125, (4-(pyrazin-2-ylmethoxy)phenyl)carbonohydrazonoyl dicyanide]	0	2300	140.5	–
N#CC(C#N)=NNc1ccc(OCc2nc3ccccc3[nH]2)cc1 [Compound 126, (4-((1H-benzo[d]imidazol-2-yl)methoxy)phenyl)carbonohydrazonoyl dicyanide]	0	100	133.2	–
N#CC(C#N)=NNc1ccc(OCc2cccnn2)cc1 [Compound 127, (4-(pyridazin-3-ylmethoxy)phenyl)carbonohydrazonoyl dicyanide]	0	1200	134.9	–
N#CC(C#N)=NNc1ccc(OCc2nc3ccccc3o2)cc1 [Compound 128, (4-(benzo[d]oxazol-2-ylmethoxy)phenyl)carbonohydrazonoyl dicyanide]	0	300	108.5	–
N#CC(C#N)=NNc1ccc(OCc2nc3ccccc3s2)cc1 [Compound 129, (4-(benzo[d]thiazol-2-ylmethoxy)phenyl)carbonohydrazonoyl dicyanide]	0	200	106.9	–
N#CC(C#N)=NNc1ccc(OCc2cc3ccccc3s2)cc1 [Compound 130, (4-(benzo[b]thiophen-2-ylmethoxy)phenyl)carbonohydrazonoyl dicyanide]	0	–	113	–
N#CC(C#N)=NNc1ccc(OCCc2ccc(Cl)cc2)nc1 [Compound 131, (6-(4-chlorophenethoxy)pyridin-3-yl)carbonohydrazonoyl dicyanide]	10.6	–	33.4	–
Cc1ccc(COc2ccc(NN=C(C#N)C#N)cc2C(F)(F)F)cc1 [Compound 132, (4-(4-methylbenzyloxy)-3-(trifluoromethyl)phenyl)carbonohydrazonoyl dicyanide]	0	–	39.2	–
N#CC(C#N)=NNc1ccc(OCCc2ccc(Cl)cc2)c(C(F)(F)F)c1 [Compound 133, (4-(4-chlorophenethoxy)-3-(trifluoromethyl)phenyl)carbonohydrazonoyl dicyanide]	0	–	39.7	–
COc1ccc(CCOc2ccc(NN=C(C#N)C#N)cc2C(F)(F)F)cc1 [Compound 134, (4-(4-methoxyphenethoxy)-3-(trifluoromethyl)phenyl)carbonohydrazonoyl dicyanide]	0	–	38.1	–
N#CC(C#N)=NNc1ccc(OCCc2ccc(C(F)(F)F)cc2)c(C(F)(F)F)c1 [Compound 135, (3-(trifluoromethyl)-4-(4-(trifluoromethyl)phenethoxy)phenyl)carbonohydrazonoyl dicyanide]	0	–	41.7	–
CC(Oc1ccc(NN=C(C#N)C#N)cc1)c1ccc(C(F)(F)F)cc1 (stereo not shown) [Compound 139, (4-(1-(4-(trifluoromethyl)phenyl)ethoxy)phenyl)carbonohydrazonoyl dicyanide]	–	–	–	remaining activity at 3 µM (tau protein; [5]): 39%; Cell viability (Tau-BiFC cells): 123%
Cc1cc(NN=C(C#N)C#N)ccc1OCc1ccccc1 [Compound 141, (4-(benzyloxy)-3-methylphenyl)carbonohydrazonoyl dicyanide]	–	866	–	remaining activity at 3 µM (tau protein; [5]): -25%; Cell viability (Tau-BiFC cells): 109%
Cc1ccc(COc2ccc(NN=C(C#N)C#N)cc2C)cc1 [Compound 142, (3-methyl-4-(4-methylbenzyloxy)phenyl)carbonohydrazonoyl dicyanide]	–	1610	–	remaining activity at 3 µM (tau protein; [5]): -5%; Cell viability (Tau-BiFC cells): 111%
Cc1cnc(COc2ccc(NN=C(C#N)C#N)cc2C)cn1 [Compound 147, (3-methyl-4-((5-methylpyrazin-2-yl)methoxy)phenyl)carbonohydrazonoyl dicyanide]	–	147	–	remaining activity at 3 µM (tau protein; [5]): -19%; Cell viability (Tau-BiFC cells): 98%; Human (%) [1]: 86.4%; Rat (%) [2]: 89%; Mouse (%) [3]: 91.3%
Cc1cc(NN=C(C#N)C#N)ccc1OCc1ccc(C(F)(F)F)cc1 [Compound 148, (3-methyl-4-(4-(trifluoromethyl)benzyloxy)phenyl)carbonohydrazonoyl dicyanide]	–	–	–	remaining activity at 3 µM (tau protein; [5]): 22%; Cell viability (Tau-BiFC cells): 114%; Human (%) [1]: 77.4%; Rat (%) [2]: 86.3%; Mouse (%) [3]: >100%
COc1cc(NN=C(C#N)C#N)ccc1OCc1ncccn1 [Compound 161, (3-methoxy-4-(pyrimidin-2-ylmethoxy)phenyl)carbonohydrazonoyl dicyanide]	–	109	–	remaining activity at 3 µM (tau protein; [5]): -17%; Cell viability (Tau-BiFC cells): 119%
COc1cc(NN=C(C#N)C#N)ccc1OCc1cscn1 [Compound 167, (3-methoxy-4-(thiazol-4-ylmethoxy)phenyl)carbonohydrazonoyl dicyanide]	–	10	–	remaining activity at 3 µM (tau protein; [5]): -38%; Cell viability (Tau-BiFC cells): 118%
COc1cc(NN=C(C#N)C#N)ccc1OCc1csc(C)n1 [Compound 171, (3-methoxy-4-((2-methylthiazol-4-yl)methoxy)phenyl)carbonohydrazonoyl dicyanide]	–	–	–	Human (%) [1]: 79.2%; Rat (%) [2]: 80.3%; Mouse (%) [3]: 70.3%
COc1cc(NN=C(C#N)C#N)ccc1OCc1cccs1 [Compound 172, (3-methoxy-4-(thiophen-2-ylmethoxy)phenyl)carbonohydrazonoyl dicyanide]	–	–	–	Human (%) [1]: 73.3%; Rat (%) [2]: 65.3%; Mouse (%) [3]: 57.3%
COc1cc(NN=C(C#N)C#N)ccc1OCc1cnn(C)c1 [Compound 174, (3-methoxy-4-((1-methyl-1H-pyrazol-4-yl)methoxy)phenyl)carbonohydrazonoyl dicyanide]	–	–	–	Human (%) [1]: 72%; Rat (%) [2]: 54.3%; Mouse (%) [3]: >100%
(2-methoxy-4-(5-methylpyrazine-2-carboxamido)phenyl)carbonohydrazonoyl dicyanide [Compound 4]	–	–	67	Response (% @10 μM) (tau protein; [4]): 30.7%
